Key:
[1] = target: CDK1/Cyclin A (Homo sapiens) (UniProt P06493+P20248); assay: Inhibition of human CDK1/Cyclin-A at 100 nM using Histone H1 as substrate by [gamma-33P]-ATP assay; format: protein-complex assay
[2] = target: Death-associated protein kinase 3 (Homo sapiens) (UniProt O43293); assay: Inhibition of human ZIPK at 100 nM using KKLNRTLSFAEPG as substrate by [gamma-33P]-ATP assay
[3] = target: Tau-tubulin kinase 2 (Homo sapiens) (UniProt Q6IQ55); assay: Inhibition of human TTBK2 at 100 nM using MBP as substrate by [gamma-33P]-ATP assay
HeLa [4] = assay: Inhibition of colony formation in human HeLa cells at > 5 uM incubated for 2 weeks crystal violet staining based assay; format: functional
[5] = target: Serine/threonine-protein kinase VRK2 (Homo sapiens) (UniProt Q86Y07); assay: Inhibition of human VRK2 at 100 nM using casein as substrate by [gamma-33P]-ATP assay
[6] = target: NT-3 growth factor receptor (Homo sapiens) (UniProt Q16288); assay: Inhibition of human TRKC at 100 nM using poly[Glu:Tyr] (4:1) as substrate by [gamma-33P]-ATP assay
[7] = target: Dual specificity tyrosine-phosphorylation-regulated kinase 2 (Homo sapiens) (UniProt Q92630); assay: Inhibition of human DYRK2 at 100 nM using RRRFRPASPLRGPPK as substrate by [gamma-33P]-ATP assay
[8] = target: Serine/threonine-protein kinase SIK1 (Homo sapiens) (UniProt P57059); assay: Inhibition of human SIK1 at 100 nM using AMARAASAAALARRR as substrate by [gamma-33P]-ATP assay
[9] = target: Tyrosine-protein kinase ZAP-70 (Homo sapiens) (UniProt P43403); assay: Inhibition of human ZAP70 at 100 nM using poly[Glu:Tyr] (4:1) as substrate by [gamma-33P]-ATP assay
[10] = target: CDK6/cyclin D1 (Homo sapiens) (UniProt P24385+Q00534); assay: Inhibition of human CDK6/cyclin-D1 at 100 nM using RB protein as substrate by [gamma-33P]-ATP assay; format: protein-complex assay
[11] = target: Platelet-derived growth factor receptor beta (Homo sapiens) (UniProt P09619); assay: Inhibition of human PDGFRbeta at 100 nM using poly[Glu:Tyr] (4:1) as substrate by [gamma-33P]-ATP assay
[12] = target: Serine/threonine-protein kinase NLK (Homo sapiens) (UniProt Q9UBE8); assay: Inhibition of human NLK at 100 nM using MBP as substrate by [gamma-33P]-ATP assay
[13] = target: Serine/threonine-protein kinase STK11 (Homo sapiens) (UniProt Q15831); assay: Inhibition of human LKB1 at 100 nM using LSNLYHQGKFLQTFCGSPLYRRR as substrate by [gamma-33P]-ATP assay
[14] = target: Casein kinase I isoform alpha-like (Homo sapiens) (UniProt Q8N752); assay: Inhibition of human CK1a1L at 100 nM using KRRRAL[pS]VASLPGL as substrate by [gamma-33P]-ATP assay
[15] = target: CDK8/Cyclin C (Homo sapiens) (UniProt P49336+P24863); assay: Inhibition of human CDK8/cyclin-C at 100 nM using KKKVSRSGLYRSPSMPENLNRPR as substrate by [gamma-33P]-ATP assay; format: protein-complex assay
[16] = target: Receptor-interacting serine/threonine-protein kinase 4 (Homo sapiens) (UniProt P57078); assay: Inhibition of human RIPK4 at 100 nM using histone H2A as substrate by [gamma-33P]-ATP assay
[17] = target: LIM domain kinase 2 (Homo sapiens) (UniProt P53671); assay: Inhibition of human LIMK2 at 100 nM using cofilin as substrate by [gamma-33P]-ATP assay
[18] = target: Mitogen-activated protein kinase kinase kinase 10 (Homo sapiens) (UniProt Q02779); assay: Inhibition of human MLK2 at 100 nM using MBP as substrate by [gamma-33P]-ATP assay
[19] = target: Ribosomal protein S6 kinase alpha-5 (Homo sapiens) (UniProt O75582); assay: Inhibition of human MSK1 at 100 nM using GRPRTSSFAEG as substrate by [gamma-33P]-ATP assay
[20] = target: Serine/threonine-protein kinase N3 (Homo sapiens) (UniProt Q6P5Z2); assay: Inhibition of human PKN3 at 100 nM using KKLNRTLSVA as substrate by [gamma-33P]-ATP assay
[21] = target: Mitogen-activated protein kinase kinase kinase kinase 5 (Homo sapiens) (UniProt Q9Y4K4); assay: Inhibition of human KHS at 100 nM using MBP as substrate by [gamma-33P]-ATP assay
[22] = Tmax in Sprague-Dawley rat at 10 mg/kg, po measured upto 24 hrs by LC-MS/MS analysis; format: ADME, organism-based; details: in vivo
Homo sapiens = species on record: Homo sapiens; assay: Inhibition of human AMPK (A1/B1/G2) at 100 nM using HMRSAMSGLHLVKRR as substrate by [gamma-33P]-ATP assay
[23] = target: Serine/threonine-protein kinase A-Raf (Homo sapiens) (UniProt P10398); assay: Inhibition of human ARAF at 100 nM using MEK1 as substrate by [gamma-33P]-ATP assay
[24] = target: Vascular endothelial growth factor receptor 1 (Homo sapiens) (UniProt P17948); assay: Inhibition of human FLT1 at 100 nM using poly[Glu:Tyr] (4:1) as substrate by [gamma-33P]-ATP assay
[25] = target: Tyrosine-protein kinase Fer (Homo sapiens) (UniProt P16591); assay: Inhibition of human FER at 100 nM using poly[Glu:Tyr] (4:1) as substrate by [gamma-33P]-ATP assay
HeLa [26] = assay: Antitumor activity against human HeLa cells xenografted in BALB/c nude mouse assessed as tumor growth inhibition at 20 mg/kg, ig administered for 30 days measured every 3 days during compound dosing relative to control; format: functional; details: po, read-out: TGI
A549 = assay: cells; details: Homo sapiens, A549, 72 h
[27] = target: Calcium/calmodulin-dependent protein kinase type II subunit delta (Homo sapiens) (UniProt Q13557); assay: Inhibition of human CAMK2D at 100 nM using KKLNRTLSFAEPG as substrate by [gamma-33P]-ATP assay
[28] = target: Dual specificity protein kinase CLK3 (Homo sapiens) (UniProt P49761); assay: Inhibition of human CLK3 at 100 nM using MBP as substrate by [gamma-33P]-ATP assay
[29] = target: Aurora kinase A (Homo sapiens) (UniProt O14965); assay: Inhibition of human Aurora A at 100 nM using [H-LRRASLG] as substrate by [gamma-33P]-ATP assay
HeLa [30] = assay: Antitumor activity against human HeLa cells xenografted in BALB/c nude mouse assessed as tumor growth inhibition at 50 mg/kg, ig administered for 30 days measured every 3 days during compound dosing relative to control; format: functional; details: po, read-out: TGI

Serine/threonine-protein kinase SIK1 (Homo sapiens), sequence (P57059 whole entry): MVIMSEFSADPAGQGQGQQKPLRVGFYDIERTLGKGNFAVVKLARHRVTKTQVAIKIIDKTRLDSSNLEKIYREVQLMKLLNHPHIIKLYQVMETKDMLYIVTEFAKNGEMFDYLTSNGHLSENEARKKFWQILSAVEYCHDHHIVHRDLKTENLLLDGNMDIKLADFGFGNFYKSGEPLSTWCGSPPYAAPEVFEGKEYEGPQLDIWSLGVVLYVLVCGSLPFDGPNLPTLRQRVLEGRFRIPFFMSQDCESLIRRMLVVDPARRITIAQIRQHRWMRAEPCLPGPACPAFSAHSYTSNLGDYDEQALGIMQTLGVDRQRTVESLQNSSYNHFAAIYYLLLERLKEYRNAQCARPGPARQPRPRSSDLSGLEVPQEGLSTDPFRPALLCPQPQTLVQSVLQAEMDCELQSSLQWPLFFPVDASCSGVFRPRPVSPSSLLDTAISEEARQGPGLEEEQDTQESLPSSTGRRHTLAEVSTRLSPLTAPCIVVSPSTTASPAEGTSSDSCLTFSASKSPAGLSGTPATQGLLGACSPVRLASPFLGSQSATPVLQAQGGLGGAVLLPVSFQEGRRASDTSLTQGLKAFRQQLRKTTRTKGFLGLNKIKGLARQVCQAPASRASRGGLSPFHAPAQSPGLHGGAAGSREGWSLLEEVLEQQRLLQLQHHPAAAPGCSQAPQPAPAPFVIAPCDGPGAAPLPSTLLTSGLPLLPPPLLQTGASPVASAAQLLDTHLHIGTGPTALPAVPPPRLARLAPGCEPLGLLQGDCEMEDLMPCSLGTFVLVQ
Tyrosine-protein kinase Fer (Homo sapiens), sequence (P16591 whole entry, looked up): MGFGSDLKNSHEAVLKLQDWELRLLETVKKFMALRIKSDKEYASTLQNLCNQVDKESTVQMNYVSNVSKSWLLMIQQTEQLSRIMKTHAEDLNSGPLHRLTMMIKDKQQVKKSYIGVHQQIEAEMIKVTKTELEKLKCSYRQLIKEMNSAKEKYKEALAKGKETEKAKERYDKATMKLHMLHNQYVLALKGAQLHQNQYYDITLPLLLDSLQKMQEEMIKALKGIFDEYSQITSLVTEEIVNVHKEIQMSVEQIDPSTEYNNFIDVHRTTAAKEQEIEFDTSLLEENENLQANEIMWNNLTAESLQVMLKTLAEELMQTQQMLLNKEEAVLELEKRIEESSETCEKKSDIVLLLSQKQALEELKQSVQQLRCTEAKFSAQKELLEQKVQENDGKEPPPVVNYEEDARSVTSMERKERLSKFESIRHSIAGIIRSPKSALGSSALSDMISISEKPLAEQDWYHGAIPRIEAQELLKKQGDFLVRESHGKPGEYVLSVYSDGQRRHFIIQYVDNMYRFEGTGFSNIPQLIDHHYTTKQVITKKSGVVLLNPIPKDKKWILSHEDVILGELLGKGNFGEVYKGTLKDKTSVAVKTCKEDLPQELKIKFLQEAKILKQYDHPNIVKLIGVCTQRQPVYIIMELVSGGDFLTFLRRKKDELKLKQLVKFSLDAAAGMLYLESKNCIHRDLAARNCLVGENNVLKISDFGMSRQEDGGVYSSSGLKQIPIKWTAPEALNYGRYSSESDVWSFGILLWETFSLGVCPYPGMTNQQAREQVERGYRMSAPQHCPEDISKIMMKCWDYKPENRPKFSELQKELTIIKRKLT
Mitogen-activated protein kinase kinase kinase 10 (Homo sapiens), sequence (Q02779 whole entry, looked up): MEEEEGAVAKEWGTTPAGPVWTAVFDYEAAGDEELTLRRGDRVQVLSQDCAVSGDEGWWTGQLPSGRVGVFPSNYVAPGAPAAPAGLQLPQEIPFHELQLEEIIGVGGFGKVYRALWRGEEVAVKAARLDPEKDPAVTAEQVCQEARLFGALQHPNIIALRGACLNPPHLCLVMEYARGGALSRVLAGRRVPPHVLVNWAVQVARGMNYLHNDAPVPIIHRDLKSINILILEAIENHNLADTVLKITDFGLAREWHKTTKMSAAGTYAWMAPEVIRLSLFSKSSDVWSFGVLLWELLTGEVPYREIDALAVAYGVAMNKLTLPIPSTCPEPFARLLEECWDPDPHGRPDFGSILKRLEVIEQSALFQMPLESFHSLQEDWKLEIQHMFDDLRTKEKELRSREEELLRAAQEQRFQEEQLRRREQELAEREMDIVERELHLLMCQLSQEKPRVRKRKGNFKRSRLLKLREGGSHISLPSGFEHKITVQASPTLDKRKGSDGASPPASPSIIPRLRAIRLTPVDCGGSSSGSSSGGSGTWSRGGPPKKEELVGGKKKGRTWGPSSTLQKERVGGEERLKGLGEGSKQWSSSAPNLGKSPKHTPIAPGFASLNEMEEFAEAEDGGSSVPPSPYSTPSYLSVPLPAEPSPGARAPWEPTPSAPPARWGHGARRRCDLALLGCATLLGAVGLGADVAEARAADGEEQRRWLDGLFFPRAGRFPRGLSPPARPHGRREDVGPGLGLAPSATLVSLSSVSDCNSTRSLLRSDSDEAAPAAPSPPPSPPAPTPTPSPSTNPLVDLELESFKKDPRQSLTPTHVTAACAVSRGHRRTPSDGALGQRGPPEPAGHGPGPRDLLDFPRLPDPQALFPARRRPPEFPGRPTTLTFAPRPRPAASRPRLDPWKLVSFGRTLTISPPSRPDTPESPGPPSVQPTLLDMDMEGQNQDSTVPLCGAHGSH
Vascular endothelial growth factor receptor 1 (Homo sapiens), sequence (P17948 whole entry): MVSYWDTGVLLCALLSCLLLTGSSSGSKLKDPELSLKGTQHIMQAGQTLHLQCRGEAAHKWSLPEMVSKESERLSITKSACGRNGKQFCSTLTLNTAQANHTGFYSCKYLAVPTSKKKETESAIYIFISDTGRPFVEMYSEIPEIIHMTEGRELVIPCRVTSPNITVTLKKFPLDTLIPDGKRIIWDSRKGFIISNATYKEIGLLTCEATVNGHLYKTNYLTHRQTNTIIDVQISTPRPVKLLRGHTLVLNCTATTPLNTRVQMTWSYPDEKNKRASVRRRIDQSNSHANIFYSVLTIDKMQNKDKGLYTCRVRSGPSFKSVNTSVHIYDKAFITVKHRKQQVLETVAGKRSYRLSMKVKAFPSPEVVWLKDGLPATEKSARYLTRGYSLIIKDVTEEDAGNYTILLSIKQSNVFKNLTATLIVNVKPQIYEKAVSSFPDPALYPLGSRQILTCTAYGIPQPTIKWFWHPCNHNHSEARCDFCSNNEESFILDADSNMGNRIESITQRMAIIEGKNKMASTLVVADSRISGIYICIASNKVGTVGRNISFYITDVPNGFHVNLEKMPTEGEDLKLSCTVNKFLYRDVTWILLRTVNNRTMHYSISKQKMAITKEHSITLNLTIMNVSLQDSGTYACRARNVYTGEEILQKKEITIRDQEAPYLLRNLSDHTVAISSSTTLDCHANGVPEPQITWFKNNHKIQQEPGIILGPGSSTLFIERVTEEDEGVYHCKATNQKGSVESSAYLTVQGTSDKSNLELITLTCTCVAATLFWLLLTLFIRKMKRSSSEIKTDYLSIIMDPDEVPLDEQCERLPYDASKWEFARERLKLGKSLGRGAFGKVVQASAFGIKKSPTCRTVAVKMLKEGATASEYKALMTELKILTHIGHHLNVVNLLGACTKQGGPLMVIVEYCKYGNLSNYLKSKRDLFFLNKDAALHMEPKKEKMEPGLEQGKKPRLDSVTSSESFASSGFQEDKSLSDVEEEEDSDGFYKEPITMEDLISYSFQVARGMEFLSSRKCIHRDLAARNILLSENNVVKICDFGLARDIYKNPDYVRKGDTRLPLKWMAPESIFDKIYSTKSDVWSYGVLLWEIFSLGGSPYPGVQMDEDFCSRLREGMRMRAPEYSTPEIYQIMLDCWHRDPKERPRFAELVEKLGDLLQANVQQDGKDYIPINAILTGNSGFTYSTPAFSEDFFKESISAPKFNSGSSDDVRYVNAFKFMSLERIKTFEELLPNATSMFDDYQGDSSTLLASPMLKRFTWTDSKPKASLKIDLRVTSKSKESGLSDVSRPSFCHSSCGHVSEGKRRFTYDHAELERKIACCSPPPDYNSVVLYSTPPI
Serine/threonine-protein kinase STK11 (Homo sapiens), sequence (Q15831 whole entry, canonical isoform): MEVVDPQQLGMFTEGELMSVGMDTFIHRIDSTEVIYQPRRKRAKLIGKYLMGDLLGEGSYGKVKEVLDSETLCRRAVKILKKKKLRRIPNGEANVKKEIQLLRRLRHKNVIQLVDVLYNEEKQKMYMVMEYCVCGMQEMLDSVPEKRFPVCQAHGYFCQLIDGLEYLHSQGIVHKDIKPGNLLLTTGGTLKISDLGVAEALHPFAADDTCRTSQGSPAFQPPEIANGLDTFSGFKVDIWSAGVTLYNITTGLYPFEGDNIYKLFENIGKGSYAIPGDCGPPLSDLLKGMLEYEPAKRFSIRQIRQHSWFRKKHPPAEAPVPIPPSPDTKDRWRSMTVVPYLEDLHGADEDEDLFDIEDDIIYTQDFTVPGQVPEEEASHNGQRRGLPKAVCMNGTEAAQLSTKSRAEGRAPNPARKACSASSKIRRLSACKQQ
CDK1/Cyclin A (Homo sapiens), sequence (P06493 whole entry, looked up): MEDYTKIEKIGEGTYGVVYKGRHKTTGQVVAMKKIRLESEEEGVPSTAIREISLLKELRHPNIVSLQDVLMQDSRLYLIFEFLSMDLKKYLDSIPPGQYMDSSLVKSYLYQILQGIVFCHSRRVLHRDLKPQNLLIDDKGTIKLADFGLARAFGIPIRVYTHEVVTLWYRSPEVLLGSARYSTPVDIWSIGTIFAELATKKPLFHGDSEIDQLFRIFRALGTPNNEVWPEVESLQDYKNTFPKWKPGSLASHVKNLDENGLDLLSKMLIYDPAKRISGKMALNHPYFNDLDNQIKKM
CDK1/Cyclin A (Homo sapiens), sequence (P20248 whole entry, looked up): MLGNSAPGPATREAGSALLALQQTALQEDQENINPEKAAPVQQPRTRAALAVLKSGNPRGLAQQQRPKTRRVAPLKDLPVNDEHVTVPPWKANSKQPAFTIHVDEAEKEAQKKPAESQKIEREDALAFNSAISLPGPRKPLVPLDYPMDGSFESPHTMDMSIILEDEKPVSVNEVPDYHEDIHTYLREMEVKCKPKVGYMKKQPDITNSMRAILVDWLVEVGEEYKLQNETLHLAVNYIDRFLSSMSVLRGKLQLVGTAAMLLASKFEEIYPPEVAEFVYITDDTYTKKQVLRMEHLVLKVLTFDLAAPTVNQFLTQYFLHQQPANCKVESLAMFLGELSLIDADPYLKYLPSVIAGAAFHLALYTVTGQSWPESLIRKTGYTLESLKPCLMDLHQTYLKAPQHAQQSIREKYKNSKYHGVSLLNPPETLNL

COc1ccc(N2C(=O)COc3ccc(-c4cnc(OC)c(NS(=O)(=O)c5ccc(F)cc5)c4)cc32)cc1
inhibition [1]: 16% | inhibition [2]: 0.68% | inhibition [3]: -3.23% | inhibition (INH) (HeLa [4]): <=100% | inhibition [5]: 7% | inhibition [6]: 2.63% | inhibition [7]: 3.05% | inhibition [8]: 5.31% | inhibition [9]: -9.69% | inhibition [10]: 9.71% | inhibition [11]: 0.28% | inhibition [12]: 10.8% | inhibition [13]: -3.12% | inhibition [14]: -6.28% | inhibition [15]: 2.74% | inhibition [16]: 1.41% | inhibition [17]: 2.98% | inhibition [18]: -1.63% | inhibition [19]: 8.07% | inhibition [20]: -1.97% | inhibition [21]: -9.84% | Tmax [22]: 2.67 h | inhibition (Homo sapiens): -8.22% | inhibition [23]: 0.31% | inhibition [24]: 3.08% | inhibition [25]: 29.8% | inhibition in vivo at 20 mg/kg (HeLa [26]): 66.6% | IC50 (A549): 1350 nM | inhibition [27]: 22.6% | inhibition [28]: 7.47% | inhibition [29]: 3.17% | inhibition in vivo at 50 mg/kg (HeLa [30]): 87.7%

Source: ChEMBL document CHEMBL4364276, “Discovery of 4-phenyl-2H-benzo[b][1,4]oxazin-3(4H)-one derivatives as potent and orally active PI3K/mTOR dual inhibitors” (Eur J Med Chem, 2019)
